Results published in ChEMBL document CHEMBL5724914, “Linking interpersonal differences in gut microbiota composition and drug biotransformation activity” (2024).

Assays:
[1] = (§1) The drug is tested on Z-028 corresponding to mouse gut metagenome with ENA study accession number: PRJEB37062 and ENA sample accession number: ERS12561827 for biotransformation under anaerobic condition. The drug concentrations were measured over 9 timepoints collected between 0 and 24 hours of incubation by liquid-chromatography-coupled mass spectrometry (LC–MS); settings: 2 µM
[2] = as §1, with “Z-023” for “Z-028”, “to” for “to mouse gut”, “ERS12561822” for “ERS12561827”; settings: 2 µM
[3] = as §1, with “Z-021” for “Z-028”, “to” for “to mouse gut”, “ERS12561820” for “ERS12561827”; settings: 2 µM
[4] = as §1, with “Z-018” for “Z-028”, “pig” for “mouse”, “ERS12561817” for “ERS12561827”; settings: 2 µM
[5] = as §1, with “Z-013” for “Z-028”, “rabbit” for “mouse”, “ERS12561813” for “ERS12561827”; settings: 2 µM
[6] = as §1, with “Z-010” for “Z-028”, “to” for “to mouse gut”, “ERS12561810” for “ERS12561827”; settings: 2 µM
[7] = as §1, with “Z-006” for “Z-028”, “ERS12561806” for “ERS12561827”; settings: 2 µM
[8] = as §1, with “Z-005” for “Z-028”, “to” for “to mouse gut”, “ERS12561805” for “ERS12561827”; settings: 2 µM
[9] = as §1, with “WLS-370” for “Z-028”, “human” for “mouse”, “ERS12561793” for “ERS12561827”; settings: 2 µM
[10] = as §1, with “WLS-170” for “Z-028”, “human” for “mouse”, “ERS12561762” for “ERS12561827”; settings: 2 µM
[11] = as §1, with “WLS-098” for “Z-028”, “human” for “mouse”, “ERS12561754” for “ERS12561827”; settings: 2 µM
[12] = as §1, with “WLS-086” for “Z-028”, “human” for “mouse”, “ERS12561752” for “ERS12561827”; settings: 2 µM
[13] = as §1, with “WLS-082” for “Z-028”, “human” for “mouse”, “ERS12561751” for “ERS12561827”; settings: 2 µM
[14] = as §1, with “WLS-010” for “Z-028”, “human” for “mouse”, “ERS12561743” for “ERS12561827”; settings: 2 µM
[15] = human gut metagenome, 24 h, 2 µM
[16] = human gut metagenome, 24 h, 2 µM; remark: listed apart in the source
[17] = human gut metagenome, 24 h, 2 µM; remark: listed apart in the source
[18] = human gut metagenome, 24 h, 2 µM; remark: listed apart in the source
[19] = human gut metagenome, 24 h, 2 µM; remark: listed apart in the source
[20] = human gut metagenome, 24 h, 2 µM; remark: listed apart in the source

Measured: Bacterial Biotransformation
Further: call rule not given here.

CC1Cc2ccccc2N1NC(=O)c1ccc(Cl)c(S(N)(=O)=O)c1 (stereo not given) [INDAPAMIDE]
Compound NOT metabolized: all assays above

COc1ccc2c(c1)c(CC(=O)O)c(C)n2C(=O)c1ccc(Cl)cc1 [INDOMETHACIN]
Compound NOT metabolized: [1] | [2] | [3] | [5] | [6] | [7] | [8] | [13] | [18] | [19]
Compound metabolized: all other assays above

CC(CCc1ccccc1)NCC(O)c1ccc(O)c(C(N)=O)c1 (stereo not given) [LABETALOL]
Compound metabolized: [2] | [12]
Compound NOT metabolized: all other assays above

Nc1nnc(-c2cccc(Cl)c2Cl)c(N)n1 [LAMOTRIGINE]
Compound metabolized: [10] | [11] | [12] | [16] | [20]
Compound NOT metabolized: all other assays above

OC(c1cc(C(F)(F)F)nc2c(C(F)(F)F)cccc12)C1CCCCN1 (stereo not given) [MEFLOQUINE]
Compound NOT metabolized: [1] | [5] | [7] | [8] | [11] | [19]
Compound metabolized: all other assays above

CC(=O)O[C@]1(C(C)=O)CC[C@H]2[C@@H]3C=C(C)C4=CC(=O)CC[C@]4(C)[C@H]3CC[C@@]21C [MEGESTROL ACETATE]
Compound NOT metabolized: [2] | [3]
Compound metabolized: all other assays above

CC12CC3CC(C)(C1)CC(N)(C3)C2 [MEMANTINE]
Compound metabolized: [2] | [10]
Compound NOT metabolized: all other assays above

Cc1cc(C)cc(OCC2CNC(=O)O2)c1 (stereo not given) [METAXALONE]
Compound NOT metabolized: [1] | [2] | [3] | [4] | [5] | [6] | [7] | [8] | [19]
Compound metabolized: all other assays above
